Experimental data from patent US8617563B2, “Antichlamydial agents” (Duke University, priority 2011, dated 2013).
Where no end group is shown, it is not given here.

Assays:
[1] = system: mouse lung fibroblasts infected with C. trachomatis and C. muridarum; assay: Cell death in infected mouse lung fibroblasts from ICE−/− and ASC−/− knockout mice; format: cell-based; conditions: knockout cells, unlike wild-type counterparts
Experimental: FIG. 12 depicts (A) low-magnification view of C. trachomatis LGV-L2 infected HeLa monolayers (30 h) treated with SEQ ID NO:7 or SEQ ID NO:11 peptides. (B) The frequency of condensed nuclei in treated cells is dependent on peptide concentration and Chlamydia infection. (C-D) Toxicity of CPAF inhibitors to Chlamydia-infected cells is observed in non-myeloid cells including human embryonic kidney cells HEK293 (C) and mouse embryo fibroblasts (D). […] (F-G) Cell death induced by anti-CPAF peptides requires Caspase-1 activation. HeLa cells infected with C. muridarum were treated with Ac-YVAD-CMK at 2 hpi, SEQ ID NO:7 peptide or SEQ ID NO:11 control peptide at 12 hpi and the percentage of infected cells with condensed nuclei was assessed at 48 hpi (F). […] The percentage of infected cells with condensed nuclei was assessed at 48 hpi (G). […] Cell death in infected and uninfected cells treated with CPAF inhibitory peptides or control peptides was determined by counting the number of condensed nuclei of ˜1000 cells.
FIG. 13 depicts (A) that Caspase-1 inhibitors block Chlamydia-mediated cell death. […] Cells were fixed and the percentage of cells with condensed nuclei determined at 24 hpi. […] Infected cells were labeled with a cell-permeable fluorescent substrate of Caspase-1 and treated with inhibitory peptides, and Caspase-1 activity was monitored by flow cytometry. […]

[2] = system: epithelial cells infected with C. muridarum; assay: Host cell death (condensed nuclei) in C. muridarum infected cells; format: cell-based; conditions: dose-dependent, peptide at 12 hpi
Experimental: FIG. 12 depicts (A) low-magnification view of C. trachomatis LGV-L2 infected HeLa monolayers (30 h) treated with SEQ ID NO:7 or SEQ ID NO:11 peptides. (B) The frequency of condensed nuclei in treated cells is dependent on peptide concentration and Chlamydia infection. (C-D) Toxicity of CPAF inhibitors to Chlamydia-infected cells is observed in non-myeloid cells including human embryonic kidney cells HEK293 (C) and mouse embryo fibroblasts (D). […] (F-G) Cell death induced by anti-CPAF peptides requires Caspase-1 activation. HeLa cells infected with C. muridarum were treated with Ac-YVAD-CMK at 2 hpi, SEQ ID NO:7 peptide or SEQ ID NO:11 control peptide at 12 hpi and the percentage of infected cells with condensed nuclei was assessed at 48 hpi (F). Mouse lung fibroblasts (MLF) derived from congenic WT, ICE1^−/− and ASC^−/− animals were infected with C. muridarum and treated with the indicated concentrations of anti peptides 12 hpi. The percentage of infected cells with condensed nuclei was assessed at 48 hpi (G). LGV-L2 inclusions were immunostained with anti-L2 antisera and C. muridarum and C. caviae inclusions were immunostained with an anti-chlamydial LPS monoclonal antibody. Cell death in infected and uninfected cells treated with CPAF inhibitory peptides or control peptides was determined by counting the number of condensed nuclei of ˜1000 cells.

SLFYSPMVPHFWAELRNHYATSGLKRRRRRRRRR-NH2 [SEQ ID NO:7]
Host cell death in infected ICE−/− and ASC−/− mouse lung fibroblasts [1]: resistant to host cell death
Number of condensed nuclei in C. muridarum infected cells [2]: marked increase in the number of condensed nuclei
